# Results from US7217688B2, “Methods and compositions for derepression of IAP-inhibited caspase” (The Burnham Institute, priority 2005, dated 2007).
# Square brackets hold non-standard residues; d marks the D form. Side chains are listed from the residue outwards. Peptide text beside a SMILES is read from it. * marks the point of attachment. X1 = CCN(CC)c1ccc2c(-c3ccc(S(=O)(=O)*)cc3S(=O)(=O)O)c3ccc(=[N+](CC)CC)cc-3oc2c1; d2Nal = N[C@H](Cc1ccc2ccccc2c1)C(=O)O; Ahx = NCCCCCC(=O)O
# Columns and labels:
# XIAP-inhibited caspase-3 = molecular target: T1, XIAP-inhibited caspase-3 (Homo sapiens, UniProt P98170); experiment: caspase derepression assay (XIAP-inhibited caspase-3, Ac-DEVD-AFC hydrolysis); type: biochemical; details: for activity in the derepression assay using full length XIAP: active / inactive
# T1 construct: in the derepression assay using full length XIAP; made in house; host or cells: bacteria
# Description: (§1) Caspase activity was assayed by release of 7-amino-4-trifluoromethyl-coumarin (AFC) from Ac-DEVD-AFC synthetic peptide using a Molecular Devices Spectromax 340 (see Zhou et al., J. Biol. Chem. 272:7797–7800 (1997)). […] The ratio of Vmax for hydrolysis of Ac-DEVD-AFC in the presence and absence of the candidate mixture was calculated and used to identify those that contain an agent that derepresses an IAP-inhibited caspase.
# (§2) Screening of each mixture from the DCR390, TPI 1239 or TPI 1328 library, respectively, using the above described assay was carried out as follows. Each mixture was aliquoted in a 25 microliter volume and in duplicate to a well of a 96 well microtiter plate. […] Fluorescence of liberated AFC was immediately detected from each well for 30 minutes at 30 second intervals. The Vmax for hydrolysis of AC-DEVD-AFC from each well was measured using the softmax software package. Results of the screen for the DCR390 library are shown in Table I. Sets of mixtures having the same position fixed with different respective amino acids are arranged in 6 sections identified with the position number. […] The mixture in each section are arranged in descending order according to apparent velocity in the second column.
# Briefly, recombinant proteins were produced in bacteria and purified as described, for example, in Deveraux et al., Nature 388:300–304(1997). […] Generation of fluorogenic AFC (7-amino-4-trifluoromethyl coumarin) product was measured with a spectrofluorometric plate reader in kinetic mode for 30 minutes at 37° C. using excitation and emission wavelengths of 405 nm and 510 nm, respectively. […] Control reactions lacked XIAP, and all assays were conducted in the linear range of substrate hydrolysis to avoid substrate depletion artifacts.
# caspase-3 = molecular target: T2, caspase-3 (Homo sapiens, UniProt P42574); experiment: caspase-3 activity without XIAP (control arm of derepression assay); type: biochemical; details: TPI 1239 library; ratio, no XIAP
# T2 construct: made in house; host or cells: bacteria
# Description: as §1, §2
# Jurkat leukemia cells = experiment: Jurkat cell death (Annexin V / propidium iodide flow cytometry); type: cell-based
# Description: The following assay was used to test the ability of individual compounds from the TPI 1396 and TPI 1391 libraries to induce apoptosis of cultured tumor cell lines. Each of the compounds listed in Table IX was individually added to Jurkat leukemia cells (6.25×10^5 cells/mL) in RPMI containing 2.5% FBS at various concentrations for 20 hours. After incubation, cells were washed and stained with FITC-conjugated Annexin V antibody and propidium iodide (Biovision; Mountain View, Calif.). Cells were incubated for 20 minutes at room temperature in the dark and fluorescence was measured by flow cytometry (FACScan, Immunocytometry system; Becton-Dickinson; San Jose, Calif.). Cells staining positive for Annexin V were deemed non-viable.
# [1] = mouse, in vivo
# Description: Selected polyphenylurea compounds were tested for anti-tumor activity in vivo, using human tumor xenografts grown in immunocompromised mice. First, it was determined what doses of polyphenylurea compounds were tolerated by mice. […] For tumor xenograft studies, PPC1 prostate cancer cells (2.5 million) were injected subcutaneously into the flanks of 8 male Balb/C nu−/nu− mice. […] Tumor growth was monitored at least twice weekly by external calipers (see FIG. 32b). At 24 days after compound injections, mice were sacrificed and tumors were excised and weighed (see FIG. 32b, inset).
# Sera were assayed for BUN, bilirubin, ALT and AST.
# stability in human serum = type: in vitro ADME; details: expected
# tumor tissue = experiment: in vivo caspase activation in tumors (immunoblot, immunohistochemistry); set-up: species or system Balb/c mice; details: 30 mg/kg i.p. for 3 successive days
# [2] = tested on: NCI panel of 60 tumor cell lines; experiment: NCI panel of 60 tumor cell lines, protein-based colorimetric assay; set-up: species or system human; details: 48 hours
# Description: Selected polyphenylurea compounds were tested on the National Cancer Institute (NCI) panel of 60 tumor cell lines (see FIG. 28a and FIG. 29).
# [3] = tested on: tumor cells with antigen-specific T cells; experiment: CTL-mediated lysis (51Cr release); type: cell-based; details: 10 μM, 4 hours
# Description: After 4 hours, ^51Cr release was measured. Data shown in FIG. 39 are expressed as a percentage of total release induced by detergent lysis, and data represent mean±standard deviation of duplicate determinations.
# [4] = tested on: U937 leukemia cells over-expressing XIAP; experiment: U937-Neo versus U937-XIAP cell death (Annexin V); type: cell-based; details: 5 or 8 μM, 20 hours
# Description: After incubation, cells were washed, stained with FITC-conjugated Annexin V antibody and propidium iodide, and fluorescence measured by flow cytometry as described in Example XI.
# Equal amounts of protein were subjected to SDS-PAGE (4–20% gradient gels from ISC BioExpress, Kaysville, Utah.), followed by transfer to nitrocellulose membranes. […] Secondary antibodies consisted of horseradish peroxidase (HRP)-conjugated goat anti-mouse IgG (Bio-Rad, Hercules, Calif.). Detection was performed by the enhanced chemiluminescence (ECL) method. […] Lysates were prepared from the cells, normalized for total protein content and analyzed by SDS-PAGE immunoblotting using antibodies specific for XIAP, caspase-3, and β-actin.
# HeLa cells = experiment: apoptosis of transfected HeLa cells (Annexin V); type: cell-based; details: 5 μM, 20 hours
# Description: In addition to transfecting the cells with full-length XIAP, analogous assays were performed with HeLa cells transfected with plasmids over-expressing various XIAP mutants. […] The mutant was produced by site-directed mutagenesis to modify positions 148, 219, 223, 314 and 323 to contain alanine. HeLa cells were also transiently transfected with plasmids encoding Bcl-XL, an anti-apoptotic protein that operates upstream of caspases to suppress Cytochrome C release from mitochondria. HeLa cells (2.5×10^5) were seeded onto six well plates in 2 mL DMEM H21 with 5% FBS. After 24 hrs, cells were transfected (Gene Porter) with plasmids. […] Both floating and adherent cells were then recovered from cultures, washed, and apoptosis was determined by Annexin V staining using flow cytometry.
# Bcl-XL over-expression did afford resistance to traditional anticancer drugs such as etoposide and CrmA (a caspase-8 inhibitor), and protected cells from apoptosis induced by TRAIL, confirming that these anti-apoptotic proteins were functional in these experiments.
# [5] = tested on: mouse embryo fibroblasts (MEFs), human prostate epithelial cells, peripheral blood lymphocytes (PBLs); experiment: normal cell viability (annexin-V, 2 days); type: cell-based; set-up: dose or concentration left out as unconfirmed
# Description: After 2 days, cell viability was assessed by annexin-V staining.
# Jurkat cells = experiment: caspase-3 and caspase-7 activity in whole Jurkat cells; type: cell-based; details: 8 μM, 20 hours
# [6] = tested on: HCT-116 colon cancer cells; experiment: HCT-116 tumor xenograft; type: in vivo, Balb/C nu-/nu- mice; details: 30 mg/kg i.p. on days 6, 7 and 8
# Description: Additional experiments were performed using a different tumor xenograft model. HCT-116 colon cancer cells (2.5 million) were injected subcutaneously in the flanks of female Balb/C nu−/nu− mice. […] Tumor volume was measured by external calipers at least twice weekly for 19 days (see FIG. 32c). On day 19, the mice were sacrificed and the tumors were excised and weighed.
# [7] = tested on: Du145 prostate cancer cells; experiment: sensitization to anticancer drugs (MTT assay); type: cell-based; details: 10 μM, 48 hours
# Description: The percentage of viable cells relative to control was determined using a MTT (3-(4,5-dimethylthiazolyl-2)-2,5-diphenyltetrazolium bromide) assay which is commercially available (Sigma). […] Similar results were obtained for PPC1 (FIG. 31b) and PC3 (FIG. 31c) prostate cancer cells treated with VP16, DOX, or TAXOL, and for H460 (FIG. 31d) lung cancer cells treated with VP16 or DOX.
# [8] = tested on: PPC1 prostate cancer cells; experiment: PPC1 tumor xenograft; type: in vivo, Balb/C nu-/nu- mice; details: 30 mg/kg i.p. for 2 or 3 days
# Excerpt: Similar data was obtained using TPI 1396-22 (see FIG. 33a and 33b). […] In FIG. 33b, the mice were sacrificed at day 19 and the tumors excised and weighed.
# [9] = tested on: normal bone marrow mononuclear cells; experiment: normal bone marrow cell toxicity (Annexin V); type: cell-based; details: 5 μM, 20 hours
# Description: After incubation, cells were washed, stained with FITC-conjugated Annexin V antibody and propidium iodide, and fluorescence measured by flow cytometry as described above.
# [10] = tested on: PPC1, ALVA31, DU145 and HeLa cells; experiment: sensitization to TRAIL-induced apoptosis; type: cell-based; details: 1 µM
# Description: Similar tests of the effects of polyphenyl urea compounds on apoptosis induction by the biological agent TRAIL, an apoptosis inducing member of the Tumor Necrosis Factor (TNF) family were also performed.
# [11] = tested on: PC-3 and LNCaP prostate cancer cell lines; experiment: clonogenic survival (colony formation) assay; type: cell-based; details: 10 μM
# Description: In addition to short-term cytotoxicity assays, selected polyphenylurea compounds were tested for effects on clonogenic survival of cancer cells in colony formation assays, which can be considered a more stringent test of anticancer activity.
# [12] = molecular target: XIAP binding to the SMAC peptide (Homo sapiens, UniProt P98170); experiment: SMAC competition / SMAC binding assay (biotinylated SMAC 7-mer, GST-XIAP)
# Description: Peptide compounds containing unnatural amino acids in the 792 series, 792-33 and 792-35 (see FIG. 12 and 20 and Example XI), and an active compound in the TPI 1332 series, TPI 1332-69, were tested for binding activity in the SMAC binding assay as described above in Example X. For this assay, biotinylated SMAC 7-mer peptide (50 ng) was bound to 96 well plates coated with NeutrAvidin (Pierce, Rockford, Ill.) at 1 mg/ml in 100 μl per well of 50 mM HEPES pH 7.4, 100 mM NaCl, 1 mM EDTA, 10% sucrose, 0.1% CHAPS, 10 mM DTT.
# His-BIR2 of XIAP = experiment: rhodamine fluorescence polarization competitive binding assay; details: titrated with TPI 1396-11; labeled compound 2.4 μM, His-BIR2 79 μM; read-out: IC50 of the labeled candidate compound
# Description: In a second assay, competitive binding of candidate derepressors of IAP inhibited caspase was measured by a fluorescence polarization procedure. Fixed quantities of rhodamine-labeled candidate compound and IAP fragment were titrated against varying concentrations of a known IAP-binding compound. […] Polarization (millipolars or mP) was plotted against log concentration (log []) of the known IAP-binding compound. A plot of mP versus log concentration of the IAP-binding compound was then used to calculate the binding constant for the candidate compound-the IAP fragment pair.
# Plates were incubated for one hour at room temperature, after which polarization of rhodamine was read in an LJL Analyst HT® multimode reader with excitation at 530 nm and emission at 580 nm.
# T1 sequence (P98170 whole entry): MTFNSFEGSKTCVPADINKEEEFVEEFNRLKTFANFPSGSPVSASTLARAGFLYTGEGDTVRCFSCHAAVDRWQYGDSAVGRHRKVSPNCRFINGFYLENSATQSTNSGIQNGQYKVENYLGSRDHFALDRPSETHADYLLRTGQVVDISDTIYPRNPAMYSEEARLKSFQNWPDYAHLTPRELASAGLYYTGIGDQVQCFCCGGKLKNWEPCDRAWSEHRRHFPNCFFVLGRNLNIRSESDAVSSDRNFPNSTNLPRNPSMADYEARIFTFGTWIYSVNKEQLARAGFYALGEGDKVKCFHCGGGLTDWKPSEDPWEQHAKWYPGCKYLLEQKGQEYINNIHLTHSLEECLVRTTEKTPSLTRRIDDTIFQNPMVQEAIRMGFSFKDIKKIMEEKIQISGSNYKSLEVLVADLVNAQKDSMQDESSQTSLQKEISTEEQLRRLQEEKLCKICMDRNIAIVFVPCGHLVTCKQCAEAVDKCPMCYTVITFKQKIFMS
# T2 sequence (P42574 29-175 limits assumed): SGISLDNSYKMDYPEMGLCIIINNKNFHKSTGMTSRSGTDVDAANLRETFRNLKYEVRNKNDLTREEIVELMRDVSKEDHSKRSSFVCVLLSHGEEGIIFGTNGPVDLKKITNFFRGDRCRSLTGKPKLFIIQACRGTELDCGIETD
# T2 sequence (P42574 176-277 limits assumed): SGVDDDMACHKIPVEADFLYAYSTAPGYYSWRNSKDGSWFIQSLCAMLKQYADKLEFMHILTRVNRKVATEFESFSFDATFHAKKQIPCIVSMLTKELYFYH
# XIAP binding to the SMAC peptide, sequence (P98170 whole entry): as the sequence (P98170 whole entry) above
structure (smiles),measurement,setting,value
"CC[C@H](C)[C@H](NC(=O)[C@@H]1CCCN1C(=O)[C@@H](NC(=O)[C@H](C)N)C(C)C)C(=O)N[C@@H](C)C(=O)N[C@@H](CCC(N)=O)C(=O)N[C@@H](CCCCN)C(N)=O [SMAC, H-Ala-Val-Pro-Ile-Ala-Gln-Lys-NH2, reference compound] (H-AVPIAQK-NH2)",Vmax(mis + casp3 + XIAP) Vmax(casp3 + XIAP),"XIAP-inhibited caspase-3; TPI 1239 library, ratio in the presence of XIAP",3.8 ± 1.7
same,Vmax(mix + casp3) Vmax(casp3),caspase-3,0.8 ± 0.0
CN(CCCCC(CNC(=O)Nc1ccccc1)N(CC1CCCN1CCCCC1CCCCC1)C(=O)Nc1ccccc1)C(=O)Nc1ccccc1 (stereo not shown) [TPI 1396-12],% nonviable cells,Jurkat leukemia cells; 1 µM,15%
same,% nonviable cells,Jurkat leukemia cells; 5 µM,95%
same,% nonviable cells,Jurkat leukemia cells; 10 μM,89%
same,% nonviable cells,Jurkat leukemia cells; 25 µM,89%
same,% nonviable cells,Jurkat leukemia cells; 50 µM,85%
same,maximum tolerated dose,[1],200 to 400 mg/kg
same,stable in human serum,stability in human serum,greater than 48 hours
same,caspase activation in tumors in vivo,tumor tissue,induce caspase activation in tumors in vivo
same,tumor proliferation (surrogate marker PCNA),tumor tissue,no effect on tumor proliferation
same,average LD50 for the 60 cell lines,[2],7.6 ± 12 µM
same,median LD50 for the 60 cell lines,[2],6 µM
same,"Activity (relative caspase-3 activity, ratio of Vmax with compound to Vmax of caspase-3 and XIAP controls)","XIAP-inhibited caspase-3; Table X, R2 = L-Proline",2.7
same,activity in the derepression assay using full length XIAP,XIAP-inhibited caspase-3,active
COc1ccc(CCN2CCC[C@@H]2CN(C(=O)Nc2ccccc2)[C@@H](CNC(=O)Nc2ccccc2)CC2CCCCC2)cc1 [TPI 1396-34],effect on CTL-mediated lysis,[3],sensitizes tumor targets to CTL-mediated lysis
same,effect of XIAP over-expression on apoptosis induction,[4],over-expression of XIAP rendered U937 cells resistant
same,apoptosis in HeLa cells over-expressing Bcl-XL,HeLa cells,not blocked
same,apoptosis in HeLa cells over-expressing full-length XIAP,HeLa cells,protected
same,apoptosis in HeLa cells transfected with a control vector,HeLa cells,induced apoptosis
same,increase of percentage cell death above background,[5],less than one-fold
same,time to half-maximal killing,Jurkat leukemia cells; 10 μM,approximately 12 hours
same,time to maximum killing,Jurkat leukemia cells; 10 μM,about 24 hours
same,apoptosis with 100 μM zVAD-fmk,Jurkat leukemia cells; 20 hours,suppressible
same,caspase activation,Jurkat cells,induced caspase activation
same,tumor size,[6],tumor size was reduced
same,"effect on cytotoxicity of VP16, DOX and TAXOL",[7],significantly increased dose-dependent cytotoxicity
same,tumor growth / tumor size,[8],reduced tumor size
same,toxicity to normal bone marrow cells,[9],little toxicity
same,activity in the derepression assay using full length XIAP,XIAP-inhibited caspase-3,active
same,effect on TRAIL-induced apoptosis,[10],sensitized
same,colony formation,[11],< 5 % of control
same,competition with XIAP binding to the SMAC peptide,[12],does not compete
CCN(CC)c1ccc2c(-c3ccc(S(=O)(=O)NCCCCCC(=O)NCCCC[C@H](NC(=O)[C@@H](Cc4ccc5ccccc5c4)NC(=O)[C@H](Cc4c[nH]c5ccccc45)NC(=O)[C@H](Cc4c[nH]c5ccccc45)NC(=O)[C@H](C)N)C(N)=O)cc3S(=O)(=O)O)c3ccc(=[N+](CC)CC)cc-3oc2c1 [TPI 1566-11] (H-AWW[d2Nal]K([Ahx-X1])-NH2),IC50,His-BIR2 of XIAP,10 µM
